The values that follow come from patent US9676793B2, “Co-crystals of 5-amino-2-oxothiazolo[4,5-d]pyrimidin-3(2H)-yl-5-hydroxymethyl tetrahydrofuran-3-yl acetate and methods for preparing and using the same” (Hoffmann-La Roche Inc., priority 2014, dated 2017).

Like-named read-outs stand apart in the source and are kept apart here.

Data set [1] can be described thus: Cell viability by CellTiter-Glo, direct treatment. Format: cell-based. The settings on record: human; for cytotoxicity at 7 days, 0.82 μM / cytotoxicity at 7 days, 2.47 μM / cytotoxicity at 7 days, 7.41 μM / cytotoxicity at 7 days, 22.22 μM / cytotoxicity at 7 days, 66.67 μM / cytotoxicity at 7 days, 200 μM: read-out: Cell viability (% inhibition).
The subject of data set [2] is HBV infected HepaRGd cells. In words: Cell viability by CellTiter-Glo, direct treatment. The settings on record: for CC50: read-out: EC/CC50 (μM), Cell viability. Format: cell-based.

Regarding `Nc1nc2c(sc(=O)n2[C@@H]2O[C@H](CO)C[C@H]2O)c(=O)[nH]1` [R06871765], in data set [1] (EXP ID 10/15/2012 AL), the cytotoxicity at 7 days, 0.82 μM was -2.58%; the cytotoxicity at 7 days, 2.47 μM was -2.57%; the cytotoxicity at 7 days, 7.41 μM was -2.85%; the cytotoxicity at 7 days, 22.22 μM was -2.43%. In data set [1] (EXP ID 10/15/2012 AL), the cytotoxicity at 7 days, 66.67 μM amounted to 3.7% and the cytotoxicity at 7 days, 200 μM was 12.3%. Moreover, in data set [1] (EXP ID 10/15/2012 VL), the cytotoxicity at 7 days, 0.82 μM is 3.23%; the cytotoxicity at 7 days, 2.47 μM amounted to 0.54%; the cytotoxicity at 7 days, 7.41 μM is -1.5%; the cytotoxicity at 7 days, 22.22 μM is -1.37%. In addition, in data set [1] (EXP ID 10/15/2012 VL), the cytotoxicity at 7 days, 66.67 μM was found to be 7.34% and the cytotoxicity at 7 days, 200 μM amounted to 22%. In data set [1] (HBV infected HepaRGd cells), the CC50 at 7 days was > 200 µM. Besides, in data set [2] (EXP ID 10/15/2012 AL), the CC50 is > 200 µM. For the same compound, in data set [2] (EXP ID 10/15/2012 VL), the CC50 is > 200 µM. The “maximum reduction in viability” value in data set [2] (highest concentration (200 μM)) is on record as “about 17%”.
